Activity calls are given as the source filed them.
What was measured:
[1] = molecular target: T1, Glucocorticoid receptor (Homo sapiens) (UniProt P04150); assay: (§1) GR In-house nuclear receptor screen; conditions: Compound concentration 3.0 uM
T1 sequence (whole entry): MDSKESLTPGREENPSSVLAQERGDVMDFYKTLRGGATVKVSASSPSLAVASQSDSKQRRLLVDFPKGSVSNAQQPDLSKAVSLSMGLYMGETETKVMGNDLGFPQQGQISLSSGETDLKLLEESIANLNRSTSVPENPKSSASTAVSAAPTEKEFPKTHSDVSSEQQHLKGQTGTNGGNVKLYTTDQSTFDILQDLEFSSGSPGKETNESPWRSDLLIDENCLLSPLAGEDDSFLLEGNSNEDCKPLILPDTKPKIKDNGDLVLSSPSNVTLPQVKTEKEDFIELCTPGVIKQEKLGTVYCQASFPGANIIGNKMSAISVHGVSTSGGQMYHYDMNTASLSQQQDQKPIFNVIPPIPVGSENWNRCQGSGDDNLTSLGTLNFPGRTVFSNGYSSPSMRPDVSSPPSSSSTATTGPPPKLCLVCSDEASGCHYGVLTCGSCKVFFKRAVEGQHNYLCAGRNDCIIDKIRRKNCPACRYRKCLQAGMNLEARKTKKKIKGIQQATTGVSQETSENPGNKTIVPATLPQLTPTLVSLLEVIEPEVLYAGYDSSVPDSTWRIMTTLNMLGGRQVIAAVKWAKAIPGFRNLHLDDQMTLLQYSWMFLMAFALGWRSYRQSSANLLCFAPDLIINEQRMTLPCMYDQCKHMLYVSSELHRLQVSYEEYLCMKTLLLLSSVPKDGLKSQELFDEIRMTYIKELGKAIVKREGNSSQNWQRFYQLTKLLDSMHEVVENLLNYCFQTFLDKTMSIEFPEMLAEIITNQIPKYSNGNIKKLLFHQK

Glucocorticoid receptor = Glucocorticoid receptor (Homo sapiens, UniProt P04150); assay: as §1
[2] = molecular target: Oxysterols receptor LXR-alpha (Homo sapiens, UniProt Q13133); assay: (§2) LXRalpha In-house nuclear receptor screen
[3] = molecular target: Oxysterols receptor LXR-alpha (Homo sapiens) (UniProt Q13133); assay: as §2; conditions: Compound concentration 3.0 uM
[4] = molecular target: D(2) dopamine receptor (Homo sapiens) (UniProt P14416); conditions: Compound concentration 10.0 uM
Chain of D(2) dopamine receptor (Homo sapiens) (P14416 whole entry): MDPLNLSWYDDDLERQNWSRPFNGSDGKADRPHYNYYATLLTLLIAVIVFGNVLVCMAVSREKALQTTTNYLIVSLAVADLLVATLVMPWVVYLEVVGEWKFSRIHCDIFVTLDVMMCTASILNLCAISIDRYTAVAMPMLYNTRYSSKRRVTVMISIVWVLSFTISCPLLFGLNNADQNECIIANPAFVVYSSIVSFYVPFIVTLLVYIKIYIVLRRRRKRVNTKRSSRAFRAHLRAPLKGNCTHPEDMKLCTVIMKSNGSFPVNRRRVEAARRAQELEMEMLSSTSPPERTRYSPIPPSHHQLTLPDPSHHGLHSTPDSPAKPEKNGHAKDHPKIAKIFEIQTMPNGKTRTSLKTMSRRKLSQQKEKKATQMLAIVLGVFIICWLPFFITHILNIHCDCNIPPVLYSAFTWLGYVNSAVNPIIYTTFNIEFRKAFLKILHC

[5] = molecular target: Thyroid hormone receptor beta (Homo sapiens) (UniProt P10828); assay: TRbeta Indigo Bioscience nuclear receptor screen; conditions: Compound concentration 0.3 uM
[6] = molecular target: 5-hydroxytryptamine receptor 2C (Homo sapiens) (UniProt P28335); conditions: Compound concentration 10.0 uM
Chain of 5-hydroxytryptamine receptor 2C (Homo sapiens) (P28335 whole entry): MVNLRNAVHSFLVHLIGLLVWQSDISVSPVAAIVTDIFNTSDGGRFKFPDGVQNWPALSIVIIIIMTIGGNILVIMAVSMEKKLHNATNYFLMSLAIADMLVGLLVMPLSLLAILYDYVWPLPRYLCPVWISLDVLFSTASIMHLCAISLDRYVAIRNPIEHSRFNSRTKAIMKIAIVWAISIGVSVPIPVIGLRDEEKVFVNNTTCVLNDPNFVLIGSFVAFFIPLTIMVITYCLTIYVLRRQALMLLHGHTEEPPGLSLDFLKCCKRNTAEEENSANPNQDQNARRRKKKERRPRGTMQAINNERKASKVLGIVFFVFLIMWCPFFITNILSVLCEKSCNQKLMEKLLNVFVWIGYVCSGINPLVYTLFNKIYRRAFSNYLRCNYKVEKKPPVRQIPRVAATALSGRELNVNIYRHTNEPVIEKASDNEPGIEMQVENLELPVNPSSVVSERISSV

[7] = molecular target: Sodium-dependent noradrenaline transporter (Homo sapiens) (UniProt P23975); conditions: Compound concentration 10.0 uM
[8] = molecular target: Receptor-type tyrosine-protein kinase FLT3 (Homo sapiens) (UniProt P36888); assay: Flt3 Invitrogen kinase panel; conditions: Compound concentration 10.0 uM
[9] = molecular target: Peroxisome proliferator-activated receptor alpha (Homo sapiens) (UniProt Q07869); assay: PPARalpha Indigo Bioscience nuclear receptor screen; conditions: Compound concentration 0.3 uM
[10] = molecular target: D(1A) dopamine receptor (Homo sapiens) (UniProt P21728); conditions: Compound concentration 10.0 uM
[11] = molecular target: Mu-type opioid receptor (Homo sapiens) (UniProt P35372); assay: Mu (h) CEREP screen; conditions: Compound concentration 10.0 uM
[12] = molecular target: Inhibitor of nuclear factor kappa-B kinase subunit beta (Homo sapiens) (UniProt O14920); assay: IKKbeta Invitrogen kinase panel; conditions: Compound concentration 10.0 uM
Chain of Inhibitor of nuclear factor kappa-B kinase subunit beta (Homo sapiens) (O14920 whole entry): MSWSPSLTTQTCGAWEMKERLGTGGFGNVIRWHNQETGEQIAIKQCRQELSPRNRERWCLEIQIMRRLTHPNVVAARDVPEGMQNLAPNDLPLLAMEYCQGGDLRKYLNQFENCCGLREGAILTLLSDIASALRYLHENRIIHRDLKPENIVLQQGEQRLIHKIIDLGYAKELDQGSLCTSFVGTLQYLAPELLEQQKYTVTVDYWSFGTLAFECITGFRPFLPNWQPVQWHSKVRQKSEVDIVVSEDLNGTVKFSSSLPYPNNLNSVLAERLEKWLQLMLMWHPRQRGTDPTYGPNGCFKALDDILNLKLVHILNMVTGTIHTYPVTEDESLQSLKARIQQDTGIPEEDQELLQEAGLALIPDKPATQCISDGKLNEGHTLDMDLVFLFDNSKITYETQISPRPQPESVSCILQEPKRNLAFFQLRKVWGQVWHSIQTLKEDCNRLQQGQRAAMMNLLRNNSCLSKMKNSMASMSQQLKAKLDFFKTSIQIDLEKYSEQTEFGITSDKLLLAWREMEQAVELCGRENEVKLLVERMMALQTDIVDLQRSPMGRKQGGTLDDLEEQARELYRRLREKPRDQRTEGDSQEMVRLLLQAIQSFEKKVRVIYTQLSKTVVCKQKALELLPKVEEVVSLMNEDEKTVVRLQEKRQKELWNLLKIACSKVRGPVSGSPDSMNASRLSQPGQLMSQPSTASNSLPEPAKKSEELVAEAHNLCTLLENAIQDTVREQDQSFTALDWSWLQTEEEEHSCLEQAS

[13] = molecular target: Insulin receptor (Homo sapiens) (UniProt P06213); assay: INSR Invitrogen kinase panel; conditions: Compound concentration 10.0 uM
[14] = molecular target: Tyrosine-protein kinase JAK3 (Homo sapiens) (UniProt P52333); assay: JAK3 Invitrogen kinase panel; conditions: Compound concentration 10.0 uM
[15] = molecular target: Muscarinic acetylcholine receptor M3 (Homo sapiens) (UniProt P20309); assay: M3 (h) CEREP screen
Chain of Muscarinic acetylcholine receptor M3 (Homo sapiens) (P20309 whole entry, looked up, canonical isoform): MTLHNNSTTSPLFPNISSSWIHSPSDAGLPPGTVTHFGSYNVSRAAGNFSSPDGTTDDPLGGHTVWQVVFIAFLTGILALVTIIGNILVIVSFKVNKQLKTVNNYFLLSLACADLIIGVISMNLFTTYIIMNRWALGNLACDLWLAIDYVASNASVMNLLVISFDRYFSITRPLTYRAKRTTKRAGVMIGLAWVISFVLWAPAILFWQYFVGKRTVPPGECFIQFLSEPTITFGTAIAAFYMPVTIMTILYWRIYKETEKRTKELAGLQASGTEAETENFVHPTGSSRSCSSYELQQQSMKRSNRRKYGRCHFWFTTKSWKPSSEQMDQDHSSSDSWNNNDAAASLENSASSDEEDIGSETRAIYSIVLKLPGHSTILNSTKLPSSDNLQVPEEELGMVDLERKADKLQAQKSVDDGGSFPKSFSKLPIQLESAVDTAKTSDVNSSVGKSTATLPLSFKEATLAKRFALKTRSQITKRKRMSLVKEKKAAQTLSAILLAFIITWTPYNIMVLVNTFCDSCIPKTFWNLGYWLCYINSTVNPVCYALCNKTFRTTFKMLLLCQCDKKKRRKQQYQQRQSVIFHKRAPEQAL

[16] = molecular target: Casein kinase I isoform epsilon (Homo sapiens) (UniProt P49674); assay: CK1epsilon Invitrogen kinase panel; conditions: Compound concentration 10.0 uM
Chain of Casein kinase I isoform epsilon (Homo sapiens) (P49674 whole entry, looked up, canonical isoform): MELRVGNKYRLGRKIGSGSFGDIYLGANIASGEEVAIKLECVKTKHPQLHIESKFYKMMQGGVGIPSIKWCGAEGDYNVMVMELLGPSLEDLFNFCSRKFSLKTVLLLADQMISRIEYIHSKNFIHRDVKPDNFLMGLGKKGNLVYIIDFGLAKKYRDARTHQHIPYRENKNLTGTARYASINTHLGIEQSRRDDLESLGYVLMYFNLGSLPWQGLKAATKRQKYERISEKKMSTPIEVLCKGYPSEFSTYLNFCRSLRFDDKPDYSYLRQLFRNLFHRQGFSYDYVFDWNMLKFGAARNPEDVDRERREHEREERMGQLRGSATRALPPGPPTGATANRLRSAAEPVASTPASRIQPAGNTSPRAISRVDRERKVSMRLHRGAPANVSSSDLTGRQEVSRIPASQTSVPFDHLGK

[17] = molecular target: Tyrosine-protein kinase JAK2 (Homo sapiens) (UniProt O60674); assay: JAK2 Invitrogen kinase panel; conditions: Compound concentration 10.0 uM
Chain of Tyrosine-protein kinase JAK2 (Homo sapiens) (O60674 whole entry): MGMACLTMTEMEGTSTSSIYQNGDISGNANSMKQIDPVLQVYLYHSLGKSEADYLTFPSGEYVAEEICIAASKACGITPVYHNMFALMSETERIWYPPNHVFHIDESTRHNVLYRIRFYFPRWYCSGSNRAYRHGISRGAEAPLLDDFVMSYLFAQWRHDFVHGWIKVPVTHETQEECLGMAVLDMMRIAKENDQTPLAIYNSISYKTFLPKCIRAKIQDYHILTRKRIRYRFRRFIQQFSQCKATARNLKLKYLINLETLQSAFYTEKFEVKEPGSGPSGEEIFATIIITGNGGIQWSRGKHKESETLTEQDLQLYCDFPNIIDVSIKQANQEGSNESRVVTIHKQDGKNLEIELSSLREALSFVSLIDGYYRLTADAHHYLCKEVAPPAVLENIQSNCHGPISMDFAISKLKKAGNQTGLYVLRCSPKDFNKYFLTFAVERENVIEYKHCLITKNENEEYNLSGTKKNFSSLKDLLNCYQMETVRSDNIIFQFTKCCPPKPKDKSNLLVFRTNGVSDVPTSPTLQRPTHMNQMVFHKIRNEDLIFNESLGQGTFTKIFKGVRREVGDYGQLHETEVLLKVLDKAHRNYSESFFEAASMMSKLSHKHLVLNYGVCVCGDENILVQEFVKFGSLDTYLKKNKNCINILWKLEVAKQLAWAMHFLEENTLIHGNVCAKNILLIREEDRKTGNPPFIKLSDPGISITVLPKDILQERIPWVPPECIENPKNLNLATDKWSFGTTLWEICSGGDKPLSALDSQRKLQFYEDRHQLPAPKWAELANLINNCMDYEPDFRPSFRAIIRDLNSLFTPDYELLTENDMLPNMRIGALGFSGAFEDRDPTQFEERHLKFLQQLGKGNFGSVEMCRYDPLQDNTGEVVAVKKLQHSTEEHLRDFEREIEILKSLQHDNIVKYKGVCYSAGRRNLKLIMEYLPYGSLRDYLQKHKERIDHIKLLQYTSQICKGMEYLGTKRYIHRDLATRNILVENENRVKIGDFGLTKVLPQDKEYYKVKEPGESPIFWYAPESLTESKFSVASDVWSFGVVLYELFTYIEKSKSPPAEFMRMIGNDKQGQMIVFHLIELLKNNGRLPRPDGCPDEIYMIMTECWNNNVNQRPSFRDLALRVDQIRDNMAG

[18] = molecular target: Mitogen-activated protein kinase 1 (Homo sapiens) (UniProt P28482); assay: ERK2 Invitrogen kinase panel; conditions: Compound concentration 10.0 uM
[19] = molecular target: Proto-oncogene tyrosine-protein kinase receptor Ret (Homo sapiens) (UniProt P07949); assay: Ret Invitrogen kinase panel; conditions: Compound concentration 10.0 uM
[20] = molecular target: Nuclear receptor ROR-gamma (Homo sapiens, UniProt P51449); assay: Human whole blood assay; type: tissue-based; design: compound concentration 10 uM
[21] = molecular target: Nuclear receptor ROR-gamma (Homo sapiens) (UniProt P51449)
[22] = molecular target: Death-associated protein kinase 3 (Homo sapiens) (UniProt O43293); assay: ZIPK Invitrogen kinase panel; conditions: Compound concentration 10.0 uM
[23] = molecular target: C-X-C chemokine receptor type 2 (Homo sapiens) (UniProt P25025); assay: CXCR2 (h) CEREP screen; conditions: Compound concentration 1.0 uM
[24] = molecular target: Calcium/calmodulin-dependent protein kinase type II subunit beta (Homo sapiens) (UniProt Q13554); assay: CaMKIIbeta Invitrogen kinase panel; conditions: Compound concentration 10.0 uM
Chain of Calcium/calmodulin-dependent protein kinase type II subunit beta (Homo sapiens) (Q13554 whole entry): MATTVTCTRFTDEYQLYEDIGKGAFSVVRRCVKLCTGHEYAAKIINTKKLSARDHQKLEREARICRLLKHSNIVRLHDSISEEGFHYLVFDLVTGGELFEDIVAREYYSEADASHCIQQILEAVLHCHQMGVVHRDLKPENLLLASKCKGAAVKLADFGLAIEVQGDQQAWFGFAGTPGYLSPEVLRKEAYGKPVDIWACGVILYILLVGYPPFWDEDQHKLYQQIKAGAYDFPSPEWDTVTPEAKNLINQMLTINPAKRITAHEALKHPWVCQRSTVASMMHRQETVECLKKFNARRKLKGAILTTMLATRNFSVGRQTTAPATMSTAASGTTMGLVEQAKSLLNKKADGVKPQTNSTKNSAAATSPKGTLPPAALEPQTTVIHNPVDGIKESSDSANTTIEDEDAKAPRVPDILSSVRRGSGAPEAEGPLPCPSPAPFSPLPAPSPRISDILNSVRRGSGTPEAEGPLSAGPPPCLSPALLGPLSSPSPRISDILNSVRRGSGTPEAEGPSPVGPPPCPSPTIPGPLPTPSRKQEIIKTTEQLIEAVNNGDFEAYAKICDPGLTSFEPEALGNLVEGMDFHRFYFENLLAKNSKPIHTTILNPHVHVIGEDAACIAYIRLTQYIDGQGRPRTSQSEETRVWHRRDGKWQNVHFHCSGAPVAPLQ

[25] = molecular target: 5-hydroxytryptamine receptor 6 (Homo sapiens) (UniProt P50406); assay: 5-HT6 (h) CEREP screen
Chain of 5-hydroxytryptamine receptor 6 (Homo sapiens) (P50406 whole entry): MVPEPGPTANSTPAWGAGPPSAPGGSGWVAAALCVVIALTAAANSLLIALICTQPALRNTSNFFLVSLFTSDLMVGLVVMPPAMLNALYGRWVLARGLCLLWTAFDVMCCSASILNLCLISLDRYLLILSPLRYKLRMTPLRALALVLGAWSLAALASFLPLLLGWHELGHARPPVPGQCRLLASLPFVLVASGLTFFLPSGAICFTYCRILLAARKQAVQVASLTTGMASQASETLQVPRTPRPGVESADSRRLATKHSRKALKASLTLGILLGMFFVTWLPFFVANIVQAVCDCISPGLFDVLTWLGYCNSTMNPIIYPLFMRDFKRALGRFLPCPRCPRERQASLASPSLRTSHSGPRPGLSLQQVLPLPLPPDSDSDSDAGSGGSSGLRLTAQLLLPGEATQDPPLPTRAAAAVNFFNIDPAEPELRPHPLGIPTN

[26] = molecular target: Muscarinic acetylcholine receptor M2 (Homo sapiens) (UniProt P08172); conditions: Compound concentration 10.0 uM
[27] = molecular target: 5-hydroxytryptamine receptor 1A (Homo sapiens) (UniProt P08908); conditions: Compound concentration 10.0 uM
[28] = molecular target: T2, CAR (nuclear receptor subfamily 1 group I member 3) (Homo sapiens, UniProt Q14994); assay: CAR Indigo Bioscience nuclear receptor screen
T2 sequence (Q14994 whole entry): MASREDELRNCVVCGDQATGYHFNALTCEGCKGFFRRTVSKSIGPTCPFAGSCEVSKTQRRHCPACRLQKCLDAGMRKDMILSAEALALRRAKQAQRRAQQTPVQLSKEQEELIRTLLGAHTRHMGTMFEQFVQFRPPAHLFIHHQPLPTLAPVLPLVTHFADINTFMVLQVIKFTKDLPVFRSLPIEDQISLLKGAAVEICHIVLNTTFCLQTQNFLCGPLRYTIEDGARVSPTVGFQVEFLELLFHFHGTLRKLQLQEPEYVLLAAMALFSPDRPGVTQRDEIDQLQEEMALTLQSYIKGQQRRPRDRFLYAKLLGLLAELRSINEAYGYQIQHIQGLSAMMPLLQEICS

COc1nc2ccc([C@@](O)(c3ccccc3)C3CCN(C(C)=O)CC3)cc2c(Cl)c1Cc1ccc(-n2cccn2)cc1 [JNJ-54119936]
-0.121% (not active): inhibition at 0.3 µM ([28]; compound concentration 0.3 uM)
-0.752% (not active): inhibition at 1 µM ([28]; compound concentration 1 uM)
2.37% (not active): inhibition at 3 µM ([28]; compound concentration 3 uM)
inactive: inhibition [1] 13% | inhibition [3] 31% | inhibition [4] 12.5% | inhibition [5] 1.13% | inhibition [6] 21.2% | inhibition [7] 21.7% | inhibition [8] 4% | inhibition [9] 1.34% | inhibition [10] 19.9% | inhibition [11] 15% | inhibition [12] 6% | inhibition [13] 3% | inhibition [14] 2% | inhibition ([15]; Compound concentration 1.0 uM) 21% | inhibition ([15]; Compound concentration 10.0 uM) 19% | inhibition [16] 0% | inhibition [17] 6% | inhibition [18] 13% | inhibition [19] 3% | inhibition [22] 10% | inhibition [23] 10% | inhibition [24] 7% | inhibition ([25]; Compound concentration 1.0 uM) 20% | inhibition ([25]; Compound concentration 10.0 uM) 22% | inhibition [26] 1.16% | inhibition [27] 16.6%
6.4 µM: IC50 [2]
~6 µM: IC50 (Glucocorticoid receptor)
active: IC50 [20] 0.332 µM | qKD [21] 5.3 nM

From ChEMBL document CHEMBL4800728, “Data for DCP probe JNJ-54119936” (2021)
